Laboratory results from patent US7928138B2, “Marine actinomycete taxon for drug and fermentation product discovery” (Regents of the University of California, priority 2000, dated 2011).
In brackets after ≈: the same amount, converted by molar mass.

Tested on: HCT-116 human colon carcinoma cell line
Test: Cytotoxicity against human colon carcinoma cell line by MTS assay
Type: cell-based
Details: pure compound
Experimental: Assay for the inhibition of growth of colon carcinoma cells and of ovarian cancer cells in vitro. The cytotoxicity of extracts from cells or culture media were assessed in vitro against the human colon carcinoma cell line HCT116 and the human ovarian carcinoma cell line A2780 by MTS assay. Cells were plated at 4,000 cells per well in 96 well microliter plates and, after 24 hours, the extract (dissolved in DMSO or other appropriate solvent) was added and serially diluted. The cells were incubated with the compound at 37° C. for 72 hours, then the tetrazolium dye MTS was added to a final concentration of 333 μg/ml and the electron coupling agent phenazine methosulfate was added to a final concentration of 25 μM. Once reduced, MTS is converted into a […] blue crystal formazan and that was read at an absorbance at 490 nm with a microplate reader. As dead cells are unable to reduce MTS, the amount of formazan is correlated to the number of viable cells. The IC50, the drug concentration required to inhibit proliferation of 50% of the cells, was used as a measure of efficacy.

`C[C@@]12OC(=O)[C@]1([C@@H](O)[C@@H]1C=CCCC1)NC(=O)[C@@H]2CCCl` [salinosporamide A] was tested, and the “IC50 against the HCT-116 human colon carcinoma cell line” value was 0.01 µg/mL (≈ 0.0319 µM).
